From US20240252586A1, “ENGINEERED ANTIMICROBIAL PEPTIDES AND USAGE THEREOF” (priority 2021, published 2024)
“And” between values parts separate entries of the source, which are not always exact repeats. Identical values can stand only once. Like-named read-outs stand apart in the source and are kept apart here. Each block holds one compound with its values, some of them ahead of it.

What was measured:
[1] = test system: E. Coli ATCC 25922
Procedure: (§1) SEQ ID NO: 1 stocks were made at 5.12 mg/mL in water adjusted to pH of 5.0 with 1% glacial acetic acid.
(§2) The test organisms (Table 7) consisted of clinical isolates from the Micromyx (MMX) repository, a reference isolate from the American Type Culture Collection (ATCC, Manassas, VA) and the Centers for Disease Control (CDC, Atlanta GA). Upon initial receipt, the isolates were streaked under suitable conditions onto agar medium appropriate to each organism. The organisms were incubated for 18-24 hr at 35° C. in ambient atmosphere. Colonies harvested from these growth plates were resuspended in the appropriate medium containing a cryoprotectant. Aliquots of each suspension were then stored frozen at −80° C. Prior to testing, all organisms were cultured onto trypticase soy agar containing 5% sheep blood. The agar plates were incubated as described above.
(§3) The Test media used for MIC and FIC were testing were cation-adjusted Mueller-Hinton broth (CAMHB) and Roswell Park Memorial Institute (RPMI-1640), buffered with 3-(N-morpholino)propanesulfonic acid (MOPS). Each test media was supplemented with 0.002% Tween-80 (P-80) prior to testing.
(§4) MIC assay plates were prepared for broth microdilution in accordance with guidelines from the Clinical and Laboratory Standards Institute (CLSI); automated liquid handlers (Biomek 3000 and Biomek FX) and multi-channel pipettes were used to conduct serial dilutions and liquid transfers. MIC assay plates were prepared using a 96-well, deep-well microdilution plate that mimicked the layout of the daughter plates.
(§5) For the mother plate, wells across the standard 96-well microdilution plate were filled with 150 μL of sterile saline 0.002% P-80 in columns 2 through 12. […] The Biomek 300 was used to make eleven 2-fold serial dilutions horizontally across each row of the plate from columns 2 through 11. The Biomek FX was then used to transfer 5 μL of the SEQ ID NO: 1 and saline 0.002% P-80 to the daughter plates.
(§6) A standardized inoculum of each organism was prepared per CLSI methods. Suspensions were prepared to equal a 0.5 McFarland standard followed by a 1:10 dilution into test medium. The inocula were dispensed into sterile reservoirs divided by length and the Biomek 3000 was used to inoculate the plates. Daughter plates were placed on the Biomek 3000 work surface in reverse orientation so that inoculation took place from low to high drug concentration. The Biomek 3000 delivered 10 μL of the diluted suspension into each well. These inoculations yielded a final cell concentration in the daughter plates of approximately 5×10^5 CFU/mL in each well. Plates were incubated at 35° C. for 16-20 hr. The microplates were viewed from the bottom using a plate viewer and the MIC was recorded as the lowest concentration of drug that inhibited visible growth of the organism.

[2] = test system: E. Coli ATCC BAA-2469
Procedure: as §1, §2, §3, §4, §5, §6

[3] = test system: E. Coli CDC 0451
Procedure: as §1, §2, §3, §4, §5, §6

[4] = test system: P. aeruginosa ATCC 27853
Procedure: as §1, §2, §3, §4, §5, §6

[5] = test system: P. aeruginosa CDC 0509
Procedure: as §1, §2, §3, §4, §5, §6

[6] = test system: P. aeruginosa CDC 0515
Procedure: as §1, §2, §3, §4, §5, §6

[7] = test system: S. aureus ATCC 29213
Procedure: as §1, §2, §3, §4, §5, §6

[8] = test system: S. aureus NRS 382
Procedure: as §1, §2, §3, §4, §5, §6

[9] = test system: S. aureus NRS 384
Procedure: as §1, §2, §3, §4, §5, §6

[10] = test system: S. epidermidis MMX 3628
Procedure: as §1, §2, §3, §4, §5, §6

[11] = test system: S. epidermidis MMX 5129
Procedure: as §1, §2, §3, §4, §5, §6

[12] = test system: S. epidermidis MMX 8655
Procedure: as §1, §2, §3, §4, §5, §6

[13] = test system: P. aeruginosa CDC 0515; details: for FICA / MICA: RPMI; for MICA: in combination with SEQ ID NO: 1
Procedure: FIC test ranges were set based on broth microdilution MIC test data. FIC assay plates were prepared in accordance with CLSI guidelines for broth microdilution susceptibility testing; automated liquid handlers, and multi-channel pipettes were used to conduct serial dilutions and liquid transfers.
SEQ ID NO: 1 was tested at two concentration ranges depending on the test media. All organisms tested in CAMHB 0.002% P-80 were tested from 0.015-16 μg/mL; when tested in RPMI 0.002% P-80, the range tested was 0.004-4 μg/mL. For each SEQ ID NO: 1 mother, wells across the standard 96-well microdilution plate were filled with 150 μL of sterile saline 0.002% P-80 in columns 2 through 12. A 300 μL aliquot at 20× the highest final concentration of each dilution range to be tested, was added to each well in column 1 of the plate. The Biomek 3000 was used to make eleven 2-fold serial dilutions horizontally across each row of the plate columns 2 through 11.
The daughter plates were then completed using the Biomek FX to transfer 5 μL of drug solution from each well of the SEQ ID NO: 1 mother plates to the corresponding well in each daughter plate in a single step. […] The preparation of the daughter plates was performed for each media type; two times in total as all organisms were tested in both media types.
A standard inoculum for each organism was prepared per CLSI method. Colonies were picked up from the primary plate and a suspension was prepared equal to 0.5 McFarland turbidity standard. The suspensions were additionally diluted 1:10 in the appropriate broth. A 10 μL standardized inoculum was delivered into each well using the Biomek 3000 from low to high concentration. These inoculations yielded a final cell concentration in the daughter plates of approximately 5×10^5 CFU/mL in each well. […] Exemplary checkboard panels are seen in Table 5 and Table 6. Plates were incubated at 35° C. for 16-20 hr.
The MIC of the horizontal agent (row H) and the MIC of the vertical agent (column 12) were recorded and the wells of the growth-no growth interface for wells containing agents in combination at varying ratios were recorded by row. […] Pinpoint trailing was not interpreted as growth.
For each relevant row of the panel, the FICI was calculated as:
FICdrug A/MICdrug A+FICdrug B/MICdrug=FICI
Mean FICI values were determined for each combination tested by averaging the FICI values as observed on each row of the checkerboard assay (See Table 9, e.g., if there were FICI values for B-G, those FICI values were added together and divided by the number of rows the FICI values which in this case is 6 to get the mean FICI value for that combination).
Using the criteria described by: Odds FC. 2003. Synergy, antagonism, and what the chequerboard puts between them. J Antimicrob Chemother 52(1):1, the mean FICI for the combination was interpreted as follows: ≤0.5=synergy, >0.5-4=additive/indifferent, and >4=antagonism. […] An interpretation of indifference is consistent with growth inhibition at concentrations at or slightly below/above the MICs of the individual agents alone, resulting in a FICI value of >0.5 but […].

[14] = test system: Staphylococcus aureus NRS 382 (USA100 MRSA) biofilm; assay: Wire biofilm time-kill assay (Study 3); assay type: cell-based; details: 150 mM sodium bicarbonate, 1 mg/mL; for CFU/mL: per replicate
Description: Study 3. […]
These three vehicles without SEQ ID NO: 1 served as the untreated controls. Double strength Dey/Engley neutralizing broth was used as a neutralizer for dilution and plating during determination of colony-forming units (CFU)/mL at each time point.
In order to establish the biofilm on the wires, the following procedure was followed: An overnight culture of each isolate was made in Tryptic soy broth. K-wires that were cut to 6 mm and sterilized by autoclaving were placed in 24 well plates and inoculated with 1 mL of a normalized bacterial suspension containing approximately 1×10^6 CFU/mL in cation-adjusted Mueller-Hinton broth. The plates containing the wires were incubated for 24 hr at 35° C. followed by removing the planktonic cells by carefully pipetting the medium from the wells. Fresh CAMHB (1 mL) was added to the wells containing the wires and the plates were incubated for an additional 24 hr at 35° C.
After the biofilm was established, the wires were removed from the wells using sterile forceps, rinsed with 1 mL of PBS, and placed in the appropriate treatment well containing 0, 1, 5, or 10 mg/mL SEQ ID NO: […] After the designated time, each wire was removed, rinsed with 1 mL of PBS, and then placed in an Eppendorf tube with 1 mL of double strength Dey-Engley medium. The wires were then sonicated at room temperature for 10 min to dislodge bacteria using a Lab Line Instruments sonicator at a setting of 100%.
A 0.2 mL aliquot of sonicate was removed and pipetted into column 1 of a 96-well plate that contained 180 μL of double strength Dey-Engley medium in columns 2 through 5. […] The plate was then tilted at a […] to allow the diluted sample to track across the agar surface to the opposite side of the plate. The plates were laid flat, allowed to dry at room temperature, then inverted and incubated at 35° C. for approximately 24 hr. Colonies were manually counted to determine the viable count in CFU/mL.

MIC ([1]; CAMHB): 200 mM
MIC ([1]; RPMI): 200 mM
MIC ([2]; CAMHB): 200 mM
MIC ([2]; RPMI): 200 mM
MIC ([3]; CAMHB): 100 mM
MIC ([3]; RPMI): 200 mM
MIC ([4]; CAMHB): 200 mM
MIC ([4]; RPMI): 200 mM
MIC ([5]; CAMHB): 200 mM
MIC ([5]; RPMI): 200 mM
MIC ([6]; CAMHB): 200 mM
MIC ([6]; RPMI): 200 mM
MIC ([7]; CAMHB): >200 mM
MIC ([7]; RPMI): 200 mM
MIC ([8]; CAMHB): 200 mM
MIC ([8]; RPMI): 200 mM
MIC ([9]; CAMHB): 200 mM
MIC ([9]; RPMI): 200 mM
MIC ([10]; CAMHB): 100 mM
MIC ([10]; RPMI): 200 mM
MIC ([11]; CAMHB): 200 mM
MIC ([11]; RPMI): 200 mM
MIC ([12]; CAMHB): 200 mM
MIC ([12]; RPMI): 200 mM
Drug A MIC ([13]; CAMHB, alone): > 100
MICA ([13]; checkerboard row A): 100
MICA ([13]; checkerboard row B): 50
MICA ([13]; checkerboard row C): 25
MICA ([13]; checkerboard row D): 12.5
MICA ([13]; checkerboard row E): 6.25
MICA ([13]; checkerboard row F): 3.12
MICA ([13]; checkerboard row G): 1.56
Compound: O=C([O-])O.[Na+] [Sodium Bicarbonate]
FICA ([13]; checkerboard row A): 0.5
FICA ([13]; checkerboard row B): 0.25
FICA ([13]; checkerboard row C): 0.125
FICA ([13]; checkerboard row D): 0.063
FICA ([13]; checkerboard row E): 0.031
FICA ([13]; checkerboard row F): 0.016
FICA ([13]; checkerboard row G): 0.008

Compound: SEQ ID: 1 (RRWVRRVRRVWRRVVRVVRRWVRR)
Mean CFU/mL ([14]; 0 min): 1.08E+5 CFU/mL
CFU/mL ([14]; 0 min): 4.80E+04 CFU/mL and 1.50E+05 CFU/mL and 1.25E+05 CFU/mL
Mean CFU/mL ([14]; 1 min): 1.68E+3 CFU/mL
CFU/mL ([14]; 1 min): 8.00E+02 CFU/mL and 3.15E+03 CFU/mL and 1.10E+03 CFU/mL
CFU/mL 2 ([14]; 5 min): 0 CFU/mL
Mean CFU/mL ([14]; 5 min): 5.00E+1 CFU/mL
CFU/mL ([14]; 5 min): 5.00E+01 CFU/mL
CFU/mL 2 ([14]; […]): 1.00E+02 CFU/mL
Mean CFU/mL ([14]; […]): 1.17E+2 CFU/mL
